Measured values reported in patent US10307410B2, “Mcl-1 modulating compounds for cancer treatment” (CENTRE REGIONAL DE LUTTE CONTRE LE CANCER FRANCOIS BACLESSE, priority 2014, dated 2019).
“Also recorded” adds a separate entry of the source.

Key:
[1] = system: SKOV3 chemoresistant ovarian cancer cells; experiment: Pyridoclax / ABT-737 association, apoptotic cell death; assay type: cell-based, human; conditions: SKOV3, single agent
Protocol: (§1) FIG. 4 represents the effect of the association of Pyridoclax with ABT-737 on chemoresistant ovarian cancer cells IGROV1-R10 (top) and SKOV3 (bottom). Cells were concomitantly (A, E) or sequentially (B) exposed to 25 μM Pyridoclax and 5 μM ABT-737, and cellular effects were assessed either longitudinally (A, B, E) or after 24 h (C, D, F). [A, B, E] real time cellular activity assessed by impedancmetry (xCELLigence technology), after concomitant exposure (A, E) or sequential exposure (B; 24 h Pyridoclax, then ABT-737). [C]: Cellular morphology and DNA content histograms after a 24 h concomitant exposure. [D and F]: PARP and caspase 3 cleavage after a 24 h concomitant exposure.
(§2) Adherent and floating cells were pooled, washed with 1×PBS and centrifuged at 200 g for 5 min before staining by Annexin V, propidium iodide or both, as recommended by the manufacturer (Roche Diagnostic, Indianapolis, USA). Briefly, 100 μl of Annexin V—Flit or propidium iodide or both were added on the cells pellet (10^6 cells) and incubated 15 minutes at room temperature in obscurity. 500 μl of sample buffer was then added on the suspensions that were thereafter analyzed using a Gallios flow cytometer (Beckman Coulter, Roissy, France) and cell cycle distribution was determined using Kaluza acquisition software (Beckman Coulter).
(§3) Cells were rinsed with ice-cold PBS, suspended in a lysis buffer [RIPA:NaCl 150 mM, Tris (pH 8) 50 mM, Triton X100 1%, PMSF 4 mM, EDTA 5 mM, NaF 10 mM, NaPPi 10 mM, Na3OV4 1 mM, aprotinin 0.5 μl/ml and 4.6 ml ultra pure water] and incubated on ice for 30 minutes. Lysates were collected after centrifugation (13200 g, 10 min, 4° C.) and protein concentrations were determined using the Bradford assay (Bio-Rad, Hercules, USA). 20 μg of protein were separated by SDS-PAGE on a 4-12% gradient polyacrylamide gel (Invitrogen, Cergy-Pontoise, France) and transferred to Hybond-PVDF membranes (Amersham, Orsay, France). […]

Noxa/Mcl-1 interaction = target: T1, Noxa/Mcl-1 interaction (Homo sapiens, UniProt Q07820); experiment: BRET assay, Noxa/Mcl-1 interaction; assay type: cell-based; conditions: BRET in Hela cells, 10 μM, 16 hours
T1 construct: expressed in transfected cells; host or cells: HeLa cells
T1 sequence (Q07820 whole entry): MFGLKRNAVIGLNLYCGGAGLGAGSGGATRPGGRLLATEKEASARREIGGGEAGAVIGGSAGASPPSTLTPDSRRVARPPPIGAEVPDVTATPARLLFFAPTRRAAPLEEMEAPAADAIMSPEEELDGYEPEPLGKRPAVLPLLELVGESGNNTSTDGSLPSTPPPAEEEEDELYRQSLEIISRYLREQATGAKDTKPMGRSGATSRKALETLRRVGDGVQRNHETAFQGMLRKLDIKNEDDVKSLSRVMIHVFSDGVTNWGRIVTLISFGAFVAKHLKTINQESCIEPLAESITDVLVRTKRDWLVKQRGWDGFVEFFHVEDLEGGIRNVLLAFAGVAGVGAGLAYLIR
Protocol: (§4) Hela cells were seeded on 6-well plates and transfected with 200 ng/well of plasmid pRLuc-Bax, pRLuc-Puma or pRLuc-Noxa coding for BRET donors and 1 µg/well of peYFP-Bcl-xL or peYFP-Mcl-1 coding for BRET acceptors (or with pCMV-Bcl-xL or pCMV-Mcl-1 for control). Twenty-four hours after transfection, cells were trypsinized and re-seeded into white 96 well plate flat bottom, incubated for another day, and then treated with drugs for 16 hours at 10 μM. Light emission at 485 nm and 530 nm was measured consecutively using the Mithras fluorescence-luminescence detector LB 940 (Berthold) after adding the luciferase substrate, coelenterazine H (Uptima) at a final concentration of 5 μM. BRET ratios were calculated as described [Terrillon et al. (2003) Mol Endocrinol 17, 677-691, Vo et al. (2012) Eur J Med Chem., 286-93].

Mcl-1/Puma interaction = target: T2, Mcl-1/Puma interaction (Homo sapiens, UniProt Q07820); experiment: BRET assay, Mcl-1/Puma interaction; assay type: cell-based; conditions: BRET in Hela cells, 10 μM, 16 hours
T2 construct: expressed in transfected cells; host or cells: HeLa cells
T2 sequence (Q07820 whole entry): as above
Protocol: as §4

[2] = system: IGROV1-R10 chemoresistant ovarian cancer cells; experiment: Pyridoclax / ABT-737 association, apoptotic cell death; assay type: cell-based; conditions: IGROV1-R10, single agent
Protocol: as §1, §2, §3

Question: Which results are given for `CN(C)CC[C@H](CSc1ccccc1)Nc1ccc(S(=O)(=O)NC(=O)c2ccc(N3CCN(Cc4ccccc4-c4ccc(Cl)cc4)CC3)cc2)cc1[N+](=O)[O-]` [ABT-737, 4-[4-[[2-(4-chlorophenyl)phenyl]methyl]piperazin-1-yl]-N-[4-[[(2R)-4-(dimethylamino)-1-phenylsulfanylbutan-2-yl]amino]-3-nitrophenyl]sulfonylbenzamide, reference compound]?
Answer: cell death as single agent [1]: neither ABT-737 nor Pyridoclax induced cell death as single agents; effect on Noxa/Mcl-1 interaction (Noxa/Mcl-1 interaction): not able to modify these interactions; effect on Mcl-1/Puma interaction (Mcl-1/Puma interaction): not able to modify these interactions; also recorded: not able to modify this interaction; cell death as single agent [2]: neither ABT-737 nor Pyridoclax induced cell death as single agents
